Data published in patent US6627641B1, “Antimalarial naphthylisoquinoline alkaloids and pharmaceutical compositions and medical uses thereof” (The United States of America as represented by the …, priority 1994, dated 2003).
≈ marks a conversion by molar mass, not a printed value.

Tests used:
[1] = system: P. falciparum (NF54 strain, clone A149); assay: In vitro 3H-hypoxanthine incorporation test with P. falciparum NF 54; format: cell-based, Plasmodium falciparum; conditions: NF 54, clone A149; six repeats; max. concentration 50 or 5 μg/ml
Description: Continuous in vitro cultures of asexual erythrocytic stages of P. falciparum (strain NF 54/64, clone A1A9) were maintained following essentially the method of Trager and Jensen (Science, 193, 673-675, 1976) at 37° C. under an atmosphere of 5% CO2, 5% O2, and 90% N2. The host cells were human erythrocytes (A or O Rh+). The culture medium was RPMI 1640 (Gibco), containing HEPES (BDH; 4.57 gL^−1), glucose (Sigma; 1.54 gL^−1), 5% NaHCO3 (Merck; 34.78 mlL^−1), and gentamycin (Merck; 8.70 mlL^−1) supplemented with 10% human plasma (A Rh+). Parasites were subinoculated every 3-4 days with initial conditions of 1% parasitemia and 1% hematocrit.
(§1) In vitro testing with P. falciparum was as follows. Each compound was dissolved in DMSO at a concentration of 20 mg ml^−1. These solutions were further diluted with physiological saline to obtain a stock solution of 500 μg ml^−1. Each test substance was applied in a series of seven, 4-fold dilutions (maximum concentrations 50 or 5 μg ml^−1). Each compound was tested in 6-fold repeats. Chloroquine was tested similarly, as a positive control.
(§2) The test protocol was performed in vitro, based upon the method of Desjardins, et al. (Antimicrobial Agents Chemother., 16, 710-715, 1979). The parasites (200 μl of a suspension with initial parasitemia of 0.5% and hematocrit of 1.5%) were incubated for 24 h in microtitre plates (Falcon MicroTest III) in hypoxanthine-free medium in the presence of 25 μl of test solution. The plates contained a negative control (6 wells with non-parasitized RBC's, no drug) and a positive control (6 wells with parasitized RBC's no drug). Thereafter, 25 μl of ^3H-hypoxanthine solution (Amersham) was added (0.5 μCi well ^−1), and the parasites were incubated for a further period of 18 h. Each well was harvested with a Cell Harvester (Nunc). The filter papers were dried for 2 h at 52° C., and their radioactivity was measured by liquid scintillation counting in Optiscint HiSafe (LKB Pharmacia).
(§3) The mean results, obtained as counts per min (cpm), were expressed as percentages of incorporation or growth inhibition. The sigmoid dose-response curve was then linearized by probit analysis with the aid of software provided by IWONL (Gent), adapted by G. Timperman and used to derive the IC50 values.

P. berghei (Anka) = assay: In vitro 3H-hypoxanthine incorporation test with P. berghei (Anka); format: cell-based, Plasmodium berghei; conditions: Anka strain
Description: as §1, §2, §3
For experiments with P. berghei (Anka strain), the parasites were maintained, and the in vitro tests performed essentially the same as above, except for the following modification. In the case of tests using P. berghei, the parasites were incubated in the same conditions as for P. falciparum (above) except that the incubations were started immediately in the presence of the ^3H-hypoxanthine and for 24 hour total duration (i.e., no delay in the addition of the ^3H-hypoxanthine). As before, the incorporated radioactivity was used as a-measure for parasite growth.

[2] = system: Plasmodium berghei (Anka strain); assay: In vivo antimalarial test in OF1 mice inoculated with P. berghei; conditions: for Parasitemia (%) from blood smears at day 4: N=6; for Parasitemia (%) at day 4 / Parasitemia (%) at day 10: average (95% CI)
Description: Outbred, female, six-week-old OF1 mice (six mice per group treated and nontreated [control]) were inoculated intraperitoneally on day 0 with 10^6 P. berghei (Anka strain) blood forms. Two hours later, they were administered orally 50 mg/kg of dioncopeltine A or dioncophylline B. A second, third, and fourth treatment (50 mg/kg each) was given after 24, 48 and 72 h, respectively (days 1, 2, and 3). […] The parasitemia (%) in the control (not drug-treated) group was 3.50 (range 3.02-3.97; N=6). In the dioncopeltine A treated group, the parasitemia was 0.03 (range 0.01-0.06; N=6); in the dioncophylline B treated group, the parasitemia was […] (range 0.66-3.07; N=6).
The in vivo antimalarial testing was performed as described above, except that more doses and different treatment schedules were employed, as described in Tables 3 and 4.

[3] = system: P. falciparum (K1 strain); assay: In vitro 3H-hypoxanthine incorporation test with chloroquine-resistant P. falciparum K1; format: cell-based, Plasmodium falciparum
Description: Selected compounds were also tested against drug-resistant parasites. The method was the same as above except for the following modifications. The parasite used was the chloroquine-resistant strain, K1, maintained essentially according to Desjardins, et al. (supra, 1979). The culture medium was RPMI-1640 containing TES (Sigma; 7.64 gL^−1), glucose (BDH; 1.67 gL^−1), NaHCO3 (BDH; 1.94 gL^−1), and gentamycin (Nicholas; 30 mgL^−1) supplemented with 10% human serum (A RH+). Parasites were subinoculated every 3-4 days with initial conditions of 1% parasitemia and 2.5% hematocrit. For the testing, small aliquots of test material were dissolved in 20 μl EtOH and RPMI 1640 to give solutions of 1 or 10 mg ml^−1. Each was applied in a series of twelve, […] dilutions (final […] ranging from 50 to 1.19×10^−3 μg ml^−1). Chloroquine diphosphate (Sigma) was used in the same experiments as a reference and also in twelve, 4-fold dilutions (final concentrations 2×10^−5-1.19×10^−12M). Each compound was tested in duplicate.
Testing was performed in vitro based upon the method of Desjardins, et al (supra, 1979), as modified by O'Neill, et al. (Planta Med., 51, 394-399, 1985) and Ekong, et al. (Biochem. Pharmacol., 40, 297-301, 1990). The parasites (50 μl initial parasitemia of 1%, hematocrit of 5%) were incubated for 24 h in microtitre plates (Nunc) in normal (not hypoxanthine-depleted) medium in the presence of 50 μl of test solution. Controls were set up in each test by preparing 12-24 wells with non-parasitized RBC's and no test solution and 12-24 wells with parasitized RBC's and no test compound. Thereafter, 5 μl all of ^3H-hypoxanthine (Amersham) were added (0.2 μCi well ^−1), and the parasites incubated for a further period of 18 h. Each well was harvested with a Cell Harvester (Skatron). Glass fibre filters were dried briefly. Radioactivity was measured by liquid scintillation counting in Ecoscint (National Diagnostics).
The results obtained as cpm were expressed as percentages of incorporation of growth inhibition. The dose-related part of the sigmoidal curves obtained were linearized by regression analysis with the aid of software developed by S. Grant (I.SHTM) and used to calculate the IC50 values.

[4] = 50 mg/kg oral on days 0, 1, 2, 3, OF1 mice
[5] = 50 mg/kg/d oral, 1 day of treatment
[6] = 50 mg/kg/d oral, 2 days of treatment
[7] = 50 mg/kg/d oral, 3 days of treatment
[8] = 50 mg/kg/d oral, 4 days of treatment
[9] = oral treatment with 4×50 mg/kg/d

Q: Which “IC50 P. falciparum NF54 strain” value [1] does the source give for N-formyl-O,O-dimethyl-dioncophylline C here?
A: >50 µg/mL

Q: With `COc1c(-c2c(C)cc(OC)c3c(O)cccc23)ccc2c1C(C)NC(C)C2` (stereo not drawn) [8-O-methyl-5′-O-demethyl-7-epi-dioncophylline A] as the compound, how does the “IC50 P. berghei, Anka” value (P. berghei (Anka)) read?
A: 4.580 µg/mL (≈ 12.1 µM)

Q: And the “IC50 P. falciparum NF54 strain” value [1]?
A: 1.584 µg/mL (≈ 4.2 µM)

Q: Which results are given for `COc1cc(C)cc2ccc(-c3ccc4c(c3O)[C@@H](C)N[C@H](C)C4)c(O)c12` [Dioncophylline B]?
A: Parasitemia (%) from blood smears at day 4 [2, 4]: 1.86%; IC50 P. berghei, Anka (P. berghei (Anka)): 0.228 µg/mL (≈ 0.627 µM); IC50 P. falciparum, K1 strain [3]: 0.063 µg/mL (≈ 0.173 µM); IC50 P. falciparum NF54 strain [1]: 0.224 µg/mL (≈ 0.616 µM)

Q: For Dioncolactone A, which “IC50 P. berghei, Anka” value (P. berghei (Anka)) is on record?
A: 0.598 µg/mL

Q: What about the “IC50 P. falciparum NF54 strain” value [1] of the same compound?
A: 1.337 µg/mL

Q: Which “IC50 P. berghei, Anka” value (P. berghei (Anka)) does the source give for `COc1cccc2c(-c3ccc4c(c3O)C(C)N(C)C(C)C4)c(C)cc(OC)c12` (centres unmarked) [N-methyl-dioncophylline A] here?
A: 9.207 µg/mL (≈ 23.5 µM)

Q: What about the “IC50 P. falciparum, K1 strain” value [3] of the same compound?
A: 5.749 µg/mL (≈ 14.7 µM)

Q: And the “IC50 P. falciparum NF54 strain” value [1]?
A: 13.637 µg/mL (≈ 34.8 µM)

Q: With `COc1cc(O)c(-c2c(C)cc(OC)c3c(OC)cccc23)c2c1[C@H](C)N[C@@H](C)C2` [Hamatine] as the compound, how does the “IC50 P. berghei, Anka” value (P. berghei (Anka)) read?
A: 5.565 µg/mL (≈ 13.7 µM)

Q: And the “IC50 P. falciparum NF54 strain” value [1]?
A: 3.338 µg/mL (≈ 8.19 µM)

Q: With `COc1cc(CO)c(-c2ccc3c(c2O)[C@@H](C)N[C@H](C)C3)c2cccc(O)c12` [Dioncopeltine A] as the compound, how does the “Signs of toxicity or other side effects” value [2, 4] read?
A: In neither of the treated groups were any signs of toxicity or other side effects observed

Q: What about the “Parasitemia (%) from blood smears at day 4” value [2, 4] of the same compound?
A: 0.03%

Q: And the “IC50 P. berghei, Anka” value (P. berghei (Anka))?
A: 0.038 µg/mL (≈ 0.1 µM)

Q: And the “IC50 P. falciparum, K1 strain” value [3]?
A: 0.330 µg/mL (≈ 0.87 µM)

Q: And the “IC50 P. falciparum NF54 strain” value [1]?
A: 0.021 µg/mL (≈ 0.0553 µM)

Q: `COc1cc(C)c(-c2ccc(O)c3c2C[C@@H](C)N[C@@H]3C)c2cccc(O)c12` [Dioncophylline C] was tested. Which “Parasitemia (%) at day 4” value ([2]; 3.125 mg/kg/d oral, days 0-3) did it give?
A: 5.36 (3.96 − 6.75) %

Q: What about the “Parasitemia (%) at day 4” value ([2]; 6.25 mg/kg/d oral, days 0-3) of the same compound?
A: 4.42 (2.77 − 6.06) %

Q: And the “Parasitemia (%) at day 4” value ([2]; 12.5 mg/kg/d oral, days 0-3)?
A: 3.36 (2.35 − 4.37) %

Q: What about the “Parasitemia (%) at day 10” value ([2]; 12.5 mg/kg/d oral, days 0-3) of the same compound?
A: 26.91 (0.00 − 60.36) %

Q: What about the “Parasitemia (%) at day 4” value ([2]; 25 mg/kg/d oral, days 0-3) of the same compound?
A: 0.62 (0.00 − 1.34) %

Q: And the “Parasitemia (%) at day 10” value ([2]; 25 mg/kg/d oral, days 0-3)?
A: 29.82 (11.20 − 48.43) %

Q: What about the “Parasitemia (%) at day 4” value [2, 5] of the same compound?
A: 0.02 (0.00 − 0.05) %

Q: And the “Parasitemia (%) at day 10” value [2, 5]?
A: 7.87 (0.00 − 23.92) %

Q: And the “Parasitemia (%) at day 4” value [2, 6]?
A: 0.01 (0.00 − 0.02) %

Q: What about the “Parasitemia (%) at day 10” value [2, 6] of the same compound?
A: 0.41 (0.00 − 1.38) %

Q: What about the “Number of OF1 negative (neg) at day 10” value ([2]; 50 mg/kg/d oral, 2 days of treatment, n = 5) of the same compound?
A: (2 0F1 neg)

Q: What about the “Parasitemia (%) at day 4” value [2, 7] of the same compound?
A: 0.00 (0.00 − 0.00) %

Q: And the “Parasitemia (%) at day 10” value [2, 7]?
A: 0.003 (0.000 − 0.012) %

Q: And the “Number of OF1 negative (neg) at day 10” value ([2]; 50 mg/kg/d oral, 3 days of treatment, n = 6)?
A: (5 0F1 neg)

Q: And the “Parasitemia (%) at day 4” value [2, 8]?
A: 0.00 (0.00 − 0.00) %

Q: And the “Parasitemia (%) at day 10” value [2, 8]?
A: 0.00 (0.00 − 0.00) %

Q: And the “Number of OF1 negative (neg) at day 10” value ([2]; 50 mg/kg/d oral, 4 days of treatment, n = 6)?
A: (6 0F1 neg)

Q: What about the “Parasitemia (%) at day 4” value ([2]; 50 mg/kg/d oral, days 0-3) of the same compound?
A: 0.00 (0.00 − 0.00) %

Q: What about the “Parasitemia (%) at day 10” value ([2]; 50 mg/kg/d oral, days 0-3) of the same compound?
A: 0.00 (0.00 − 0.00) %

Q: And the “Parasitemia (%) at day 4” value ([2]; 100 mg/kg/d oral, days 0-3)?
A: 0.00 (0.00 − 0.00) %

Q: What about the “Parasitemia (%) at day 10” value ([2]; 100 mg/kg/d oral, days 0-3) of the same compound?
A: 0.00 (0.00 − 0.00) %

Q: What about the “Development of erythrocytic forms of P. berghei” value [2, 9] of the same compound?
A: completely and permanently inhibited

Q: What about the Indications of toxicity [2, 9] of the same compound?
A: no observed indications of any toxicity

Q: What about the “IC50 P. berghei, Anka” value (P. berghei (Anka)) of the same compound?
A: 0.015 µg/mL (≈ 0.0413 µM)

Q: And the “IC50 P. falciparum NF54 strain” value [1]?
A: 0.005 µg/mL (≈ 0.0138 µM)

Q: What does the source list for `COc1cc(O)c(-c2c(C)cc(OC)c3c(OC)cccc23)c2c1[C@H](C)N[C@@H](C)C2` [Ancistrocladine]?
A: IC50 P. berghei, Anka (P. berghei (Anka)): >50 µg/mL; IC50 P. falciparum, K1 strain [3]: 25.350 µg/mL (≈ 62.2 µM); IC50 P. falciparum NF54 strain [1]: 18.353 µg/mL (≈ 45 µM)

Q: For “6-O-demethyl-8-O-methyl-7-epi-ancistrobrevine C”, which “IC50 P. falciparum NF54 strain” value [1] is on record?
A: 10.326 µg/mL

Q: Which results are given for `COc1cc(C)cc2c(-c3c(O)cc(O)c4c3C[C@@H](C)N[C@@H]4C)cc(-c3cc(-c4c(O)cc(O)c5c4C[C@@H](C)N[C@@H]5C)c4cc(C)cc(OC)c4c3O)c(O)c12` [Michellamine A]?
A: IC50 P. berghei, Anka (P. berghei (Anka)): >50 µg/mL; IC50 P. falciparum NF54 strain [1]: 46.957 µg/mL (≈ 62 µM)
